Tests used:
[1] = Anti-Catapresan test (anti-catapresan induced fighting test); format: in vivo; conditions: po; mouse
Description: (§1) 1-(3,4,5-Trichlorophenyl)piperazine hydrochloride [compound A] was tested in various conventional screens used for determining the effect of major tranquillizors. In these tests chlopromazine was used as a positive control. The results obtained were as follows:
(§2) The activity of Compound A in the anti-catapresan induced fighting test and the inhibition of conditioned avoidance responses in the shuttlebox tests indicate that Compound A has potential neuroleptic/anxiolytic activity in man.

[2] = Shuttlebox (conditioned avoidance behaviour in the rat), % inhibition of crossing rate; format: in vivo
Description: as §1, §2

[3] = Induction of catalepsy in the rat; format: in vivo
Description: as §1
catalepsy in 0% at 54% at
the rat. 40 mg/kg s.c. 10 mg/kg i.p.
as §2

[4] = Activity in man extrapolated from potency relative to chlorpromazine in animal tests; conditions: orally, inferred from potency relative to chlorpromazine in animal tests
Source text: as §2

Row | SMILES | ED50 [1] [mg/kg] | % inhibition of crossing rate, Shuttlebox ([2]; 10 mg/kg p.o.) [%] | Induction of catalepsy ([3]; 10 mg/kg i.p.) [%] | % inhibition of crossing rate, Shuttlebox ([2]; 5 mg/kg p.o.) [%] | daily doses at which active in man [4] [mg/kg] | cataleptic activity [3] | Induction of catalepsy ([3]; 40 mg/kg s.c.) [%]
1 | CN(C)CCCN1c2ccccc2Sc2ccc(Cl)cc21 [Chlorpromazine, chlorpromazine, reference compound] | 2.8 | -67 | 54 | – | – | – | –
2 | Cl.Clc1cc(N2CCNCC2)cc(Cl)c1Cl [Compound A, 1-(3,4,5-Trichlorophenyl)piperazine hydrochloride] | 6 | – | – | -73 | 0.2 to 10 | lack of cataleptic activity | 0

Reference: US4139621A, “N-(4-substituted-3,5-dichloro-phenyl)-piperazines” (Beecham Group Limited, priority 1976, dated 1979)
